From patent US8143294B2, “2-sulfanyl-substituted imidazole derivatives and their use as cytokine inhibitors” (priority 2007, dated 2012)

Molecular target: p38α (Homo sapiens, UniProt Q16539)
Experiment: P38α enzyme inhibition assay (ATF-2 phosphorylation ELISA)
Format: biochemical
Conditions: activated p38α, substrate ATF-2, ATP 100 μM, 60 minutes incubation, photometric readout 405 nm; read-out: Kinase assay IC50
Method: P38α Enzyme Inhibition Assay:
First the microtiter plates are coated using a dilution of ATF-2, substrate of p38α. Each step is followed by a threefold washing step. As the substrate doesn't cover the whole surface, blocking buffer is used to capture the free binding sites. In the meantime, the test compounds are diluted using the kinase buffer, which contains ATP [100 μM], phosphatase-inhibitors and the activated p38α.
The different dilutions of the test compounds are pipetted on the plate. ATP and the compounds compete for the enzyme's binding site. During an incubation time of 60 minutes ATF-2 is dual phosphorylated at Thr 69/71 by p38α kinase depending on its degree of inhibition. Next the first antibody is added into the wells. This antibody binds specifically at dual phosphorylated ATF-2 (Thr 69/71). Secondary antibody, that is conjugated with alkaline phosphatase, binds at the first one. Finally 4-NPP is given in the wells and after an incubation under cover of darkness it is photometrically analysed (405 nm).

p38α, sequence (Q16539 whole entry): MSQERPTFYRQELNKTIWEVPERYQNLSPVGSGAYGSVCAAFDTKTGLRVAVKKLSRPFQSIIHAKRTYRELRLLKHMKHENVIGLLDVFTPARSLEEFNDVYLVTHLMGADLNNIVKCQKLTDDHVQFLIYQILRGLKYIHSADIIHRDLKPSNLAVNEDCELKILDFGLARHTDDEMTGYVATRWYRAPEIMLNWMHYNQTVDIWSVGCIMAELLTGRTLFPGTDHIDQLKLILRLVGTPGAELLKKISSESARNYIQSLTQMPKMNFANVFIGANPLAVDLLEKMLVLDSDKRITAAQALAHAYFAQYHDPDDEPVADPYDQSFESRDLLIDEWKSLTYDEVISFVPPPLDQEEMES

| Compound | IC50 [nM] |
| --- | --- |
| CC(C)Nc1cc(-c2[nH]c(SC[C@@H](O)CO)nc2-c2ccc(F)cc2)ccn1 [Example 8o, (2S)-3-(4-(4-Fluorophenyl)-5-(2-(isopropylamino)pyridin-4-yl)-1H-imidazol-2-ylthio)propane-1,2-diol] | 3.2 |
| COC(=O)CSc1nc(-c2ccc(F)cc2)c(-c2ccnc(NC(C)C)c2)[nH]1 [Example 8t, Methyl 2-(4-(4-fluorophenyl)-5-(2-(isopropylamino)pyridin-4-yl)-1H-imidazol-2-ylthio)acetate] | 3.6 |
| CCNc1cc(-c2[nH]c(SCC(O)CO)nc2-c2ccc(F)cc2)ccn1 (stereo not drawn) [Example 8d, 3-(5-(2-(Ethylamino)pyridin-4-yl)-4-(4-fluorophenyl)-1H-imidazol-2-ylthio)propane-1,2-diol] | 26 |
| OCC(O)CSc1nc(-c2ccc(F)cc2)c(-c2ccnc(NCc3ccccc3)c2)[nH]1 (stereo not drawn) [Example 8b, 3-(5-(2-(1-Benzylamino)pyridin-4-yl)-4-(4-fluorophenyl)-1H-imidazol-2-ylthio)propane-1,2-diol] | 87 |
| CC(C)C(C)Nc1cc(-c2[nH]c(SC[C@@H](O)CO)nc2-c2ccc(F)cc2)ccn1 (stereo partly drawn) [Example 8m, (2S)-3-(4-(4-Fluorophenyl)-5-(2-(3-methylbutan-2-ylamino)pyridin-4-yl)-1H-imidazol-2-ylthio)propane-1,2-diol] | 9.5 |
| CC(Nc1cc(-c2[nH]c(SCC(O)CO)nc2-c2ccc(F)cc2)ccn1)c1ccccc1 (stereo not drawn) [Example 8a, 3-(4-(4-Fluorophenyl)-5-(2-(1-phenylethylamino)pyridin-4-yl)-1H-imidazol-2-ylthio)propane-1,2-diol] | 42 |
| OCCSc1nc(-c2ccc(F)cc2)c(-c2ccnc(NC3CCOCC3)c2)[nH]1 [Example 8v, 2-(4-(4-Fluorophenyl)-5-(2-(tetrahydro-2H-pyran-4-ylamino)pyridin-4-yl)-1H-imidazol-2-ylthio)ethanol] | 2.3 |
| OCC(O)CSc1nc(-c2ccc(F)cc2)c(-c2ccncc2)[nH]1 (stereo not drawn) [reference compound] | 3600 |
| CC(C)CNc1cc(-c2[nH]c(SCC(O)CO)nc2-c2ccc(F)cc2)ccn1 (stereo not drawn) [Example 8c, 3-(4-(4-Fluorophenyl)-5-(2-(isobutylamino)pyridin-4-yl)-1H-imidazol-2-ylthio)propane-1,2-diol] | 13 |
| CC(C)Nc1cc(-c2[nH]c(SCCO)nc2-c2ccc(F)cc2)ccn1 [Example 8u, 2-(4-(4-Fluorophenyl)-5-(2-(isopropylamino)pyridin-4-yl)-1H-imidazol-2-ylthio)ethanol] | 3 |
| CC(Nc1cc(-c2[nH]c(SCC(=O)O)nc2-c2ccc(F)cc2)ccn1)c1ccccc1 (stereo not drawn) [Example 8q, 2-(4-(4-fluorophenyl)-5-(2-(1-phenylethylamino)pyridin-4-yl)-1H-imidazol-2-ylthio)acetic acid] | 36 |
| CC(Nc1cc(-c2[nH]c(SCCO)nc2-c2ccc(F)cc2)ccn1)c1ccccc1 (stereo not drawn) [Example 8x, 2-(4-(4-Fluorophenyl)-5-(2-(1-phenylethylamino)pyridin-4-yl)-1H-imidazol-2-ylthio)ethanol] | 14 |
| COC(=O)CSc1nc(-c2ccc(F)cc2)c(-c2ccnc(NC(C)c3ccccc3)c2)[nH]1 (stereo not drawn) [Example 8p, methyl 2-(4-(4-fluorophenyl)-5-(2-(1-phenylethylamino)pyridin-4-yl)-1H-imidazol-2-ylthio)acetate] | 35 |
| CNc1cc(-c2[nH]c(SCC(O)CO)nc2-c2ccc(F)cc2)ccn1 (stereo not drawn) [Example 8e, 3-(4-(4-Fluorophenyl)-5-(2-(methylamino)pyridin-4-yl)-1H-imidazol-2-ylthio)propane-1,2-diol] | 100 |
| COC(=O)CSc1nc(-c2ccc(F)cc2)c(-c2ccnc(NC(C)C(C)C)c2)[nH]1 (stereo not drawn) [Example 8s, Methyl 2-(4-(4-fluorophenyl)-5-(2-(3-methylbutan-2-ylamino)pyridin-4-yl)-1H-imidazol-2-ylthio)acetate] | 20 |
| CC(C)Nc1cc(-c2[nH]c(SCC(O)CO)nc2-c2ccc(F)cc2)ccn1 (stereo not drawn) [Example 8h, 3-(4-(4-Fluorophenyl)-5-(2-(isopropylamino)pyridin-4-yl)-1H-imidazol-2-ylthio)propane-1,2-diol] | 3.6 |
| CCC(C)Nc1cc(-c2[nH]c(SCC(O)CO)nc2-c2ccc(F)cc2)ccn1 (stereo not drawn) [Example 8g, 3-(4-(4-Fluorophenyl)-5-(2-(sec-butylamino)pyridin-4-yl)-1H-imidazol-2-ylthio)propane-1,2-diol] | 5.1 |
| CC(C)C(C)Nc1cc(-c2[nH]c(SCC(O)CO)nc2-c2ccc(F)cc2)ccn1 (stereo not drawn) [Example 8f, 3-(4-(4-Fluorophenyl)-5-(2-(3-methylbutan-2-ylamino)pyridin-4-yl)-1H-imidazol-2-ylthio)propane-1,2-diol] | 14 |
| OCCSc1nc(-c2ccc(F)cc2)c(-c2ccnc(N[C@H]3CC[C@H](O)CC3)c2)[nH]1 [Example 8w, (1R,4R)-4-(4-(4-(4-Fluorophenyl)-2-(2-hydroxyethylthio)-1H-imidazol-5-yl)pyridin-2-ylamino)cyclohexanol] | 2 |
| CCOP(=O)(CSc1nc(-c2ccc(F)cc2)c(-c2ccnc(NC(C)c3ccccc3)c2)[nH]1)OCC (stereo not drawn) [Example 8r, Diethyl (4-(4-fluorophenyl)-5-(2-(1-phenylethylamino)pyridin-4-yl)-1H-imidazol-2-ylthio)methylphosphonate] | 400 |
| CC(C)C(C)Nc1cc(-c2[nH]c(SC[C@H](O)CO)nc2-c2ccc(F)cc2)ccn1 (stereo partly drawn) [Example 8l, (2R)-3-(4-(4-Fluorophenyl)-5-(2-(3-methylbutan-2-ylamino)pyridin-4-yl)-1H-imidazol-2-ylthio)propane-1,2-diol] | 17 |
| CC(C)Nc1cc(-c2[nH]c(SC[C@H](O)CO)nc2-c2ccc(F)cc2)ccn1 [Example 8n, (2R)-3-(4-(4-Fluorophenyl)-5-(2-(isopropylamino)pyridin-4-yl)-1H-imidazol-2-ylthio)propane-1,2-diol] | 5.5 |
| CC(C)C(C)Nc1cc(-c2[nH]c(SCCO)nc2-c2ccc(F)cc2)ccn1 (stereo not drawn) [Example 8k, 2-(4-(4-Fluorophenyl)-5-(2-(3-methylbutan-2-ylamino)pyridin-4-yl)-1H-imidazol-2-ylthio)ethanol] | 10 |
| OCC(O)CSc1nc(-c2ccc(F)cc2)c(-c2ccnc(NC3CCOCC3)c2)[nH]1 (stereo not drawn) [Example 8i, 3-(4-(4-Fluorophenyl)-5-(2-(tetrahydro-2H-pyran-4-ylamino)pyridin-4-yl)-1H-imidazol-2-ylthio)propane-1,2-diol] | 3.3 |
